Measurements from patent US6747061B2, “N-substituted dithiocarbamates for the treatment of biological disorders” (AtheroGenics, Inc., priority 2000, dated 2004).

System: 15-LOX-2
Experiment: 15-Lipoxygenase Form-2 assay: immunoblot of TNF-α and IL-4 co-induced 15-LOX-2 expression in NHBE cells
Format: cell-based
Settings: Homo sapiens, TNF-α 10 ng/ml + IL-4 20 ng/ml, 16-20 hours
Protocol: The 15-Lipoxygenase Form-2 (15-LOX-2) Assay is an immunoblot assay to measure tumor necrosis factor alpha (TNF-α) and interleukin-4 (IL-4) co-induced expression of 15-LOX-2 in Normal Human Epithelial Cells.
Normal human bronchial epithelial cells (NHBE) were purchased from Clonetics. They were cultured in BEGM (Clonetics) media without retinoic acid. In a typical experiment, the cells were seeded in 24-well plates. Media was changed to BEGM without retinoic acid (RA) and hydrocortisone (HC) 24 hour before dosing. Cells were then exposed to TNF-α (10 ng/ml) and IL-4 (20 ng/ml) purchased from Boehringer Mannheim in the absence or presence of compounds in fresh BEGM without RA and HC for 16-20 hours at 37° C. To establish a dose curve for each compound, three concentrations in 2 fold increments were used. All compounds were dissolved in DMSO and the final concentration of DMSO was 0.2%.
Cells were washed with cold 1×PBS three times and then lysed by 100 μl of Tris-Glycine SDS sample buffer (NOVEX). Lysates were fractionated by 4-20% gradient SDS-PAGE (NOVEX), transferred onto nitrocellulose filters (MSI) and incubated with the filters in blocking buffer (5% Blotto in 1×Tris buffered saline (TBS)+0.05% Tween 20) for 1 hour with gentle shaking. […]

## COC(=O)CCCSC(=S)NCC1CCCO1 (stereo not shown) [NDE, 4-(tetrahydrofuran-2-ylmethylthiocarbamoylsulfanyl)-butyric acid methyl ester]
  IC50: 4.5 µM
